Measurements taken from ChEMBL document CHEMBL3994662, “In vivo instability of platensimycin and platencin: Synthesis and biological evaluation of urea- and carbamate-platensimycin” (Bioorg Med Chem, 2017).
In brackets after ≈: the same amount, converted by molar mass. Blank lines part the entries; values can stand above or below the molecule they belong to.

Assays:
[1] = system: Staphylococcus aureus; test: Antibacterial activity against Staphylococcus aureus ATCC 25923 after 18 hrs by broth dilution method; type: functional; settings: ATCC 25923, 18 h
[2] = system: Micrococcus luteus; test: Antibacterial activity against Micrococcus luteus ATCC 9431 after 18 hrs by broth dilution method; type: functional; settings: ATCC 9431, 18 h
[3] = system: Kidney; test: In vivo stability in C57Bl/6 mouse kidney assessed as compound hydrolysis at 10 mg/kg, iv administered as single dose measured after 60 mins by LC-MS/MS analysis; type: ADME, organism-based; settings: 1 h
[4] = Drug uptake in C57Bl/6 mouse adipose tissue at 10 mg/kg, iv administered as single dose measured after 60 mins by LC-MS/MS analysis; type: ADME, organism-based; settings: in vivo, 1 h
[5] = Cmax in C57Bl/6 mouse at 3 mg/kg, iv administered as single dose by LC-MS/MS analysis; type: ADME, organism-based; design: dose 3 mg/kg, route intravenous; settings: in vivo
[6] = system: Kidney; test: Drug uptake in C57Bl/6 mouse kidney at 10 mg/kg, iv administered as single dose measured after 60 mins by LC-MS/MS analysis; type: ADME, organism-based; settings: in vivo, 1 h
[7] = Ratio of drug level in C57Bl/6 mouse lung to plasma at 10 mg/kg, iv administered as single dose measured after 60 mins by LC-MS/MS analysis; type: ADME, organism-based
[8] = system: Mus musculus; test: AUC (0 to 8 hrs) in C57Bl/6 mouse at 10 mg/kg, po administered as single dose via gavage by LC-MS/MS analysis; type: ADME, organism-based; design: time < 8 hr, dose 10 mg/kg, route oral; settings: in vivo
[9] = system: Liver; test: Drug uptake in C57Bl/6 mouse liver at 10 mg/kg, iv administered as single dose measured after 60 mins by LC-MS/MS analysis; type: ADME, organism-based; settings: in vivo, 1 h
[10] = In vivo stability in C57Bl/6 mouse muscle assessed as compound hydrolysis at 10 mg/kg, iv administered as single dose measured after 60 mins by LC-MS/MS analysis; type: ADME, organism-based, Muscle tissue; settings: 1 h
[11] = system: Plasma; test: Drug uptake in C57Bl/6 mouse plasma at 10 mg/kg, iv administered as single dose measured after 60 mins by LC-MS/MS analysis; type: ADME, organism-based; settings: in vivo, 1 h
[12] = Cmax in C57Bl/6 mouse at 10 mg/kg, po administered as single dose via gavage by LC-MS/MS analysis; type: ADME, organism-based; design: dose 10 mg/kg, route oral; settings: in vivo
[13] = Ratio of drug level in C57Bl/6 mouse kidney to plasma at 10 mg/kg, iv administered as single dose measured after 60 mins by LC-MS/MS analysis; type: ADME, organism-based
[14] = Oral bioavailability in C57Bl/6 mouse at 10 mg/kg administered as single dose via gavage by LC-MS/MS analysis; type: ADME, organism-based; settings: in vivo
[15] = system: Mus musculus; test: AUC (0 to 8 hrs) in C57Bl/6 mouse at 3 mg/kg, iv administered as single dose by LC-MS/MS analysis; type: ADME, organism-based; design: dose 3 mg/kg, time < 8 hr, route intravenous; settings: in vivo
[16] = system: Liver; test: In vivo stability in C57Bl/6 mouse liver assessed as compound hydrolysis at 10 mg/kg, iv administered as single dose measured after 60 mins by LC-MS/MS analysis; type: ADME, organism-based; settings: 1 h
[17] = system: Brain; test: In vivo stability in C57Bl/6 mouse brain assessed as compound hydrolysis at 10 mg/kg, iv administered as single dose measured after 60 mins by LC-MS/MS analysis; type: ADME, organism-based; settings: 1 h
[18] = In vivo stability in C57Bl/6 mouse adipose tissue assessed as compound hydrolysis at 10 mg/kg, iv administered as single dose measured after 60 mins by LC-MS/MS analysis; type: ADME, organism-based; settings: 1 h
[19] = Elimination half life in C57Bl/6 mouse at 10 mg/kg, po administered as single dose via gavage by LC-MS/MS analysis; type: ADME, organism-based; settings: in vivo, read-out: beta t1/2 (converted)
[20] = Observed clearance in C57Bl/6 mouse at 3 mg/kg, iv administered as single dose by LC-MS/MS analysis; type: ADME, organism-based; settings: in vivo
[21] = system: Plasma; test: In vivo stability in C57Bl/6 mouse plasma assessed as compound hydrolysis at 10 mg/kg, iv administered as single dose measured after 60 mins by LC-MS/MS analysis; type: ADME, organism-based; settings: 1 h
[22] = system: Lung; test: Drug uptake in C57Bl/6 mouse lung at 10 mg/kg, iv administered as single dose measured after 60 mins by LC-MS/MS analysis; type: ADME, organism-based; settings: in vivo, 1 h
[23] = Ratio of drug level in C57Bl/6 mouse muscle to plasma at 10 mg/kg, iv administered as single dose measured after 60 mins by LC-MS/MS analysis; type: ADME, organism-based, Muscle tissue/plasma
[24] = Volume of distribution in C57Bl/6 mouse at 3 mg/kg, iv administered as single dose by LC-MS/MS analysis; type: ADME, organism-based; settings: in vivo
[25] = Drug uptake in C57Bl/6 mouse muscle at 10 mg/kg, iv administered as single dose measured after 60 mins by LC-MS/MS analysis; type: ADME, organism-based, Muscle tissue; settings: in vivo, 1 h
[26] = Ratio of drug level in C57Bl/6 mouse liver to plasma at 10 mg/kg, iv administered as single dose measured after 60 mins by LC-MS/MS analysis; type: ADME, organism-based
[27] = system: Lung; test: In vivo stability in C57Bl/6 mouse lung assessed as compound hydrolysis at 10 mg/kg, iv administered as single dose measured after 60 mins by LC-MS/MS analysis; type: ADME, organism-based; settings: 1 h
[28] = In vivo stability in C57Bl/6 mouse urine assessed as compound hydrolysis at 10 mg/kg, iv administered as single dose measured after 60 mins by LC-MS/MS analysis; type: ADME, organism-based; settings: 1 h
[29] = Elimination half life in C57Bl/6 mouse at 3 mg/kg, iv administered as single dose by LC-MS/MS analysis; type: ADME, organism-based; settings: in vivo, read-out: beta t1/2 (converted)
[30] = Drug level in mouse hepatic microsomes treated with platensimycin at 1 uM up to 60 mins in absence of NADPH by LC-MS/MS analysis; type: ADME, Liver, Microsome; settings: 1 h
[31] = Drug level in mouse hepatic microsomes treated with platensimycin at 1 uM up to 60 mins in presence of NADPH by LC-MS/MS analysis; type: ADME, Liver, Microsome; settings: 1 h

MIC [1]: > 64 µg/mL
MIC [2]: 64 µg/mL (≈ 136 µM)
SMILES: COC(=O)c1ccc(O)c(NC(=O)NCC[C@]2(C)C(=O)C=C[C@]34C[C@H]5C[C@H](O[C@@]5(C)C3)[C@H]42)c1O

Stability [3]: Unstable
Drug uptake [4]: Not Active
Cmax [5]: 11 µM
Drug uptake [6]: Active
Kp at 1 h [7]: 0.4
AUC [8]: 2.3 µM·h
Drug uptake [9]: Active
Stability [10]: Stable
Drug uptake [11]: Active
Cmax [12]: 4 µM
Kp at 1 h [13]: 1.4
bioavailability [14]: 10%
AUC [15]: 6.8 µM·h
Stability [16]: Unstable
Stability [17]: Stable
Stability [18]: Stable
half-life [19]: 78 min
clearance [20]: 23 mL/min/kg
Stability [21]: Unstable
Drug uptake [22]: Active
Kp at 1 h [23]: 0.1
Vd [24]: 0.46 L/kg
Drug uptake [25]: Active
Kp at 1 h [26]: 3.8
Stability [27]: Stable
Stability [28]: Unstable
half-life [29]: 13.2 min
SMILES: C=C1C[C@@]23C=CC(=O)[C@@](C)(CCC(=O)Nc4c(O)ccc(C(=O)O)c4O)[C@@H]2C[C@@H]1CC3 [PLATENCIN]

Drug metabolism [30]: Metabolite_Detected
Drug metabolism [31]: Metabolite_Detected
SMILES: C[C@]12C[C@@]34C=CC(=O)[C@@](C)(CCC(=O)O)[C@@H]3[C@H](C[C@@H]1C4)O2
